Assay results from patent US12077503B2, “Substituted cyclic amides and their use as herbicides” (FMC CORPORATION, priority 2015, dated 2024).

Key:
Type in all cases: in vivo
[1] = test system: blackgrass (Alopecurus myosuroides); assay: Test A postemergence; details: Alopecurus myosuroides, post-emergence, 240 h
In short: (§1)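 In a loam soil and sand blend, planted seeds got a preemergence directed soil spray, and young plants at the one- to two-leaf stage, 2–10 cm high, got a postemergence application; ~10 d greenhouse hold; injury rated visually, 0 = none, 100 = complete control.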

[2] = test system: Galium (catchweed bedstraw, Galium aparine); assay: Test A postemergence; details: Galium, post-emergence, 240 h
In short: as §1

[3] = test system: wheat (Triticum aestivum); assay: Test A postemergence; details: Triticum aestivum, post-emergence, 240 h
In short: as §1

[4] = test system: barnyardgrass (Echinochloa crus-galli); assay: Test A postemergence; details: Echinochloa crus-galli, post-emergence, 240 h
In short: as §1

[5] = test system: pigweed (Amaranthus retroflexus); assay: Test A postemergence; details: Amaranthus retroflexus, post-emergence, 240 h
In short: as §1

[6] = test system: giant foxtail (Setaria faberii); assay: Test A postemergence; details: Setaria faberi, post-emergence, 240 h
In short: as §1

Kochia (Kochia scoparia) [7] = assay: Test A postemergence; details: Bassia scoparia, post-emergence, 240 h
In short: as §1

corn (Zea mays) = assay: Test A postemergence; details: Zea mays, post-emergence, 240 h
In short: as §1

[8] = test system: ryegrass, Italian (Italian ryegrass, Lolium multiflorum); assay: Test A postemergence; details: Lolium multiflorum, post-emergence, 240 h
In short: as §1

[9] = test system: ragweed (common ragweed, Ambrosia elatior); assay: Test A postemergence; details: Ambrosia artemisiifolia, post-emergence, 240 h
In short: as §1

[10] = test system: barnyardgrass (Echinochloa crus-galli); assay: Test B flooded paddy test; details: Echinochloa crus-galli, 250 g ai/ha, Flood; 0 to 100 scale where 0 is no effect and 100 is complete control; read-out: Barnyardgrass plant response rating
In short: (§2)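 2-leaf plants; pots flooded 3 cm over soil; cpd added to paddy water; depth held; greenhouse 13–15 d; visual rating vs controls, 0 = no effect, 100 = complete control.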

rice (Oryra sativa) = assay: Test B flooded paddy test; details: Oryza sativa, 250 g ai/ha, Flood; 0 to 100 scale where 0 is no effect and 100 is complete control; read-out: Rice plant response rating
In short: as §2

[11] = test system: sedge, umbrella (small-flower umbrella sedge, Cyperus difformis); assay: Test B flooded paddy test; details: Cyperus difformis, 250 g ai/ha, Flood; 0 to 100 scale where 0 is no effect and 100 is complete control; read-out: Sedge, Umbrella plant response rating
In short: as §2

[12] = test system: ducksalad (Heteranthera limosa); assay: Test B flooded paddy test; details: Heteranthera limosa, 250 g ai/ha, Flood; 0 to 100 scale where 0 is no effect and 100 is complete control; read-out: Ducksalad plant response rating
In short: as §2

[13] = test system: barnyardgrass (Echinochloa crus-galli); assay: Test A preemergence; details: Echinochloa crus-galli, pre-emergence, 240 h, Preemergence
In short: as §1

[14] = test system: pigweed (Amaranthus retroflexus); assay: Test A preemergence; details: Amaranthus retroflexus, pre-emergence, 240 h, 0 to 100 scale where 0 is no effect and 100 is complete control, read-out: Pigweed plant response rating
[15] = test system: giant foxtail (Setaria faberii); assay: Test A preemergence; details: Setaria faberi, pre-emergence, 240 h, Preemergence
In short: as §1

Kochia (Kochia scoparia) [16] = assay: Test A preemergence; details: Bassia scoparia, pre-emergence, 240 h, 0 to 100 scale where 0 is no effect and 100 is complete control, read-out: Kochia plant response rating
In short: as §1

[17] = test system: ryegrass, Italian (Italian ryegrass, Lolium multiflorum); assay: Test A preemergence; details: Lolium multiflorum, pre-emergence, 240 h, 0 to 100 scale where 0 is no effect and 100 is complete control, read-out: Ryegrass, Italian plant response rating
In short: as §1

[18] = test system: ragweed (common ragweed, Ambrosia elatior); assay: Test A preemergence; details: Ambrosia artemisiifolia, pre-emergence, 240 h, 0 to 100 scale where 0 is no effect and 100 is complete control, read-out: Ragweed plant response rating
In short: as §1

[19] = 125 g ai/ha, preemergence, approx. 10 d

CN1C[C@H](c2cccc(C(F)(F)F)c2)[C@@H](C(=O)Nc2cnccc2C(F)(F)F)C1=O [Compound 1066]
45%: pest or weed control at 250 g/ha [10]
70%: pest or weed control at 125 g/ha ([4]; 125 g ai/ha, postemergence, visual injury on 0 to 100 scale (0 no effect, 100 complete control), approx. 10 d, read-out: Barnyardgrass plant response rating) | pest or weed control at 31 g/ha ([6]; Postemergence, 31 g ai/ha, visual injury after approx. 10 d, 0 to 100 scale, 0 no effect, 100 complete control, read-out: Plant response rating, Foxtail, Giant)
100%: pest or weed control at 125 g/ha ([13]; 125 g ai/ha, visual injury rating after approximately 10 d, read-out: Barnyardgrass plant response rating (0 to 100 scale, 0 is no effect, 100 is complete control)) | pest or weed control at 31 g/ha ([15]; 31 g ai/ha, 0 to 100 scale where 0 is no effect and 100 is complete control, read-out: Foxtail, Giant plant response rating) | pest or weed control at 125 g/ha ([15]; 125 g ai/ha, visual injury rating after approximately 10 d, read-out: Foxtail, Giant plant response rating (0 to 100 scale, 0 is no effect, 100 is complete control))
90%: pest or weed control at 125 g/ha ([6]; 125 g ai/ha, postemergence, visual injury on 0 to 100 scale (0 no effect, 100 complete control), approx. 10 d, read-out: Foxtail, Giant plant response rating)
30%: pest or weed control at 125 g/ha ([8]; 125 g ai/ha, postemergence, visual injury on 0 to 100 scale (0 no effect, 100 complete control), approx. 10 d, read-out: Ryegrass, Italian plant response rating) | pest or weed control at 31 g/ha ([8]; Postemergence, 31 g ai/ha, visual injury after approx. 10 d, 0 to 100 scale, 0 no effect, 100 complete control, read-out: Plant response rating, Ryegrass, Italian)
60%: pest or weed control at 125 g/ha ([1]; 125 g ai/ha, postemergence, visual injury on 0 to 100 scale (0 no effect, 100 complete control), approx. 10 d, read-out: Blackgrass plant response rating)
40%: plant injury at 125 g/ha (corn (Zea mays); 125 g ai/ha, postemergence, visual injury on 0 to 100 scale (0 no effect, 100 complete control), approx. 10 d, read-out: Corn plant response rating)
20%: pest or weed control at 125 g/ha [14, 19] | pest or weed control at 125 g/ha (Kochia (Kochia scoparia) [16]; [19]) | pest or weed control at 31 g/ha ([17]; 31 g ai/ha, Preemergence)
0%: pest or weed control at 31 g/ha ([1]; Postemergence, 31 g ai/ha, visual injury after approx. 10 d, 0 to 100 scale, 0 no effect, 100 complete control, read-out: Plant response rating, Blackgrass) | pest or weed control at 31 g/ha ([2]; Postemergence, 31 g ai/ha, visual injury after approx. 10 d, 0 to 100 scale, 0 no effect, 100 complete control, read-out: Plant response rating, Galium) | plant injury at 31 g/ha ([3]; Postemergence, 31 g ai/ha, visual injury after approx. 10 d, 0 to 100 scale, 0 no effect, 100 complete control, read-out: Plant response rating, Wheat) | pest or weed control at 125 g/ha ([5]; 125 g ai/ha, postemergence, visual injury on 0 to 100 scale (0 no effect, 100 complete control), approx. 10 d, read-out: Pigweed plant response rating) | pest or weed control at 31 g/ha ([5]; Postemergence, 31 g ai/ha, visual injury after approx. 10 d, 0 to 100 scale, 0 no effect, 100 complete control, read-out: Plant response rating, Pigweed) | pest or weed control at 125 g/ha (Kochia (Kochia scoparia) [7]; 125 g ai/ha, postemergence, visual injury on 0 to 100 scale (0 no effect, 100 complete control), approx. 10 d, read-out: Kochia plant response rating) | pest or weed control at 31 g/ha (Kochia (Kochia scoparia) [7]; Postemergence, 31 g ai/ha, visual injury after approx. 10 d, 0 to 100 scale, 0 no effect, 100 complete control, read-out: Plant response rating, Kochia) | Corn plant response rating (crop injury, 0 = no effect, 100 = complete kill) at 31 g/ha (corn (Zea mays); Postemergence, 31 g ai/ha, visual injury after approx. 10 d, 0 to 100 scale, 0 no effect, 100 complete control) | pest or weed control at 125 g/ha ([9]; 125 g ai/ha, postemergence, visual injury on 0 to 100 scale (0 no effect, 100 complete control), approx. 10 d, read-out: Ragweed plant response rating) | pest or weed control at 31 g/ha ([9]; Postemergence, 31 g ai/ha, visual injury after approx. 10 d, 0 to 100 scale, 0 no effect, 100 complete control, read-out: Plant response rating, Ragweed) | pest or weed control at 250 g/ha (rice (Oryra sativa)) | pest or weed control at 250 g/ha [11] | pest or weed control at 31 g/ha ([14]; 31 g ai/ha, Preemergence) | pest or weed control at 31 g/ha (Kochia (Kochia scoparia) [16]; 31 g ai/ha, Preemergence) | pest or weed control at 31 g/ha ([18]; 31 g ai/ha, Preemergence) | pest or weed control at 125 g/ha [18, 19]
50%: pest or weed control at 125 g/ha ([2]; 125 g ai/ha, postemergence, visual injury on 0 to 100 scale (0 no effect, 100 complete control), approx. 10 d, read-out: Galium plant response rating) | plant injury at 125 g/ha ([3]; 125 g ai/ha, postemergence, visual injury on 0 to 100 scale (0 no effect, 100 complete control), approx. 10 d, read-out: Wheat plant response rating) | pest or weed control at 31 g/ha ([4]; Postemergence, 31 g ai/ha, visual injury after approx. 10 d, 0 to 100 scale, 0 no effect, 100 complete control, read-out: Plant response rating, Barnyardgrass) | pest or weed control at 31 g/ha ([13]; 31 g ai/ha, 0 to 100 scale where 0 is no effect and 100 is complete control, read-out: Barnyardgrass plant response rating) | pest or weed control at 125 g/ha [17, 19]
75%: pest or weed control at 250 g/ha [12]
